Laboratory results as given in article PMC11432795, “Mutagenesis of the Peptide Inhibitor of ASIC3 Channel Introduces Binding to Thumb Domain of ASIC1a but Reduces Analgesic Activity” (Marine Drugs, 2024).
Positions of bridges follow the written chain, without caps; N, C: chain ends. Residues, ends and D or L forms follow the SMILES beside them.

What was measured:
[1] = CFA-induced hyperalgesia, von Frey test; assay type: in vivo, ICR mice; settings: for increase in paw withdrawal threshold (PWT), significance by dose: 0.002, 0.02, 0.2 mg/kg i.m.
Experimental: (§1) In the CFA-induced hyperalgesia test, where CFA administration induces excess sensitivity to mechanical and thermal stimuli, the analgesic effects of peptides were assessed using von Frey filaments of varying forces (von Frey test) and a hot plate apparatus (hot plate test).
(§2) Adult male ICR mice (Animal Breeding Facility Branch of Shemyakin–Ovchinnikov Institute of Bioorganic Chemistry, Russian Academy of Sciences, Pushchino, Russia), weighing 20–25 g, were utilized. Animals were housed under controlled conditions, with a room temperature of 23 ± 2 °C, a 12 h light–dark cycle, and ad libitum access to food and water. Test substances were dissolved in saline. Peptides (Ugr9-1 and A23K at doses of 0.002, 0.02, and 0.2 mg/kg) and saline (for the control group) were administered intramuscularly 60 min prior to testing.
(§3) The abdominal constriction test of visceral pain (acetic acid-induced writhing pain model) and hyperalgesia induced by complete Freund’s adjuvant (CFA-induced inflammatory pain model) were performed as previously described.
For the von Frey filaments test, mice were positioned in a plastic chamber with access to the inflamed hind paw surface and an electronic von Frey filament (BIO-EVF, Bioseb, Vitrolles, France) was applied with gradually increasing pressure until withdrawal. Data, expressed as the strength of the applied mechanical stimulus from three applications, were averaged, with intervals between exposures of at least 1 min.
(§4) Statistical analysis was conducted using analysis of variance (ANOVA) with post hoc Tukey’s test, and data are presented as mean ± standard deviation (S.D.).

[2] = test system: rat ASIC1b channel; assay: Two-electrode voltage clamp, rat ASIC1b in X. laevis oocytes; assay type: cell-based; settings: 30 s preapplication, activated at pH 5.5
Experimental: (§5) A small portion of the ovary was isolated from frogs under anesthesia induced by a 0.17% solution of procaine methanesulphonate (MS222) (Sigma), followed by treatment with collagenase (1 mg/mL) at room temperature for 2 h. Oocytes at stages IV and V, devoid of follicular membranes, were transferred to ND-96 medium (containing 96 mM NaCl, 5 mM HEPES, 2 mM KCl, 1.8 mM CaCl2, 1 mM MgCl2, pH 7.4). mRNA synthesis was performed from pcDNA3.1 vectors (Invitrogen, Carlsbad, CA, USA) containing the rat ASIC3 gene, as well as pCI vectors containing genes for rat ASIC1a, its mutant analogues, and ASIC1b. mRNA (2.5–10 ng) was then injected into the oocytes. For the ASIC1a/3 heteromeric channels, the mRNA encoding the ASIC1a and ASIC3 subunits were injected in a 1:5 ratio, respectively. Subsequently, the oocytes were incubated for 2–3 days at a temperature of 17–19 °C in ND96 medium supplemented with gentamicin and streptomycin (20 µg/mL each).
Whole-cell electrophysiological recordings of ASIC channels were conducted using a two-electrode voltage-clamp setup. Microelectrodes were filled with 3 M KCl. Recordings from oocytes were carried out at a holding potential of −50 mV, with data filtered at 10 Hz and sampled at a rate of 100 Hz using an L780M ADC (LCard, Moscow, Russia). […]

[3] = CFA-induced hyperalgesia, hot plate test; assay type: in vivo, ICR mice; settings: hot plate 53 °C; for prolongation of paw withdrawal time, significance by dose: 0.002, 0.02, 0.2 mg/kg i.m.
Experimental: as §1, §2, §3, §4

[4] = molecular target: T1, rat ASIC3 channel (Rattus norvegicus, UniProt O35240); assay: Two-electrode voltage clamp, rat ASIC3 in X. laevis oocytes; assay type: cell-based; settings: pH 5.5 stimulus, mean ± S.E.M., 5 cells; for nH: inhibition of rat ASIC3, conditioning pH 7.4; for IC50: rat ASIC3, X. laevis oocytes, TEVC, Vh −50 mV, conditioning pH 7.4, peptide 30 s before stimulus
T1 construct: expressed in transfected cells; host or cells: Xenopus laevis oocytes injected with mRNA made from pcDNA3.1-rat ASIC3
T1 sequence (O35240 1-533): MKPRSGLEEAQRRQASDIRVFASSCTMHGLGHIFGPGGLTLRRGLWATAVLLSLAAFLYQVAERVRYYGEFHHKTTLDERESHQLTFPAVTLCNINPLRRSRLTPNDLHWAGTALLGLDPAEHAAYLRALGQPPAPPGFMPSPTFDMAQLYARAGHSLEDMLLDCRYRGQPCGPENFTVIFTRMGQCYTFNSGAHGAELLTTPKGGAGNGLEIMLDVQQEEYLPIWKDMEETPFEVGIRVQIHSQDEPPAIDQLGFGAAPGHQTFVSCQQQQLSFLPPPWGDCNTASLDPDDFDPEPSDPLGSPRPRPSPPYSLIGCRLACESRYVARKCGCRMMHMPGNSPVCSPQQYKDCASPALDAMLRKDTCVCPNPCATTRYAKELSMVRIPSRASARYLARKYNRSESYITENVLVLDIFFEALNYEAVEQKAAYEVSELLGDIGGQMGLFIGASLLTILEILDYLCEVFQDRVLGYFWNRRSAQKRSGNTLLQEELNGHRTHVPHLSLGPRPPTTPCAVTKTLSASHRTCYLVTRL
Experimental: Figure 3 The effect of mutant peptides S16K and A23K on rat ASIC1a and ASIC3 channels. […] (B) Dose–response curves for the inhibitory effect of mutant peptides on ASIC1a. Each data point represents data from 5 cells. (C) Representative current traces of Ugr9-1, S16K, and A23K at a concentration of 12.5 µM on ASIC3. […] Each point represents data from 5 cells. The depicted currents were induced by a pH 5.5 stimulus following a conditioning pH of 7.4, with peptides applied for 30 s before the pH stimulus. The holding potential (Vh) was −50 mV, and the time interval between applications ranged from 1 to 2 min. Data are presented as mean ± S.E.M.
as §5
Whole-cell electrophysiological recordings of ASIC channels were conducted using a two-electrode voltage-clamp setup. Microelectrodes were filled with 3 M KCl. Recordings from oocytes were carried out at a holding potential of −50 mV, with data filtered at 10 Hz and sampled at a rate of 100 Hz using an L780M ADC (LCard, Moscow, Russia). The synchronized delivery of solutions into the chamber and recording of electrophysiological results were carried out using in-house software v.2. Activation of ASIC channels occurred through rapid pH changes in the solution, achieved by replacing the working solution in the chamber with ND96-based solutions at varying pH levels. Specifically, HEPES was substituted with 10 mM MES for pH 5.5–6.5 and MOPS for pH 6.7–7.0.
Fresh peptide solutions were meticulously prepared in ND96 buffer with a pH of 7.43 immediately before experiments, with strict control over the pH levels. Peptides were applied for 30 s at a conditioning pH of 7.43 before acid stimulation of the channel. The interval between applications was maintained at a minimum of 1.5 to 2 min.
Electrophysiological data analysis was conducted using OriginPro 2018 software (OriginLab, Northampton, MA, USA). Dose–response relationships for Ugr9a-1, S16K, and A23K peptides were fitted using a Hill function: F1(x) = A − A/(1 + (x/IC50)^nH), where F1(x) represents the amplitude of the current at concentration x of the peptide, A is the maximum amplitude of the current, IC50 is the half-maximum inhibitory concentration of the peptide, and nH is the Hill coefficient.

[5] = 0.02 mg/kg i.m., one hour before testing, n = 7

| SMILES | increase in PWT compared to Ugr9-1 ([1]; 0.02 mg/kg i.m., versus Ugr9-1) | increase in paw withdrawal threshold (PWT), significance by dose ([1]; one hour before testing, n = 7) | effect on rat ASIC1b channel at 50 µM [2] | prolongation of paw withdrawal time, significance by dose ([3]; one hour before testing, n = 7) | paw withdrawal time effect compared to Ugr9-1 ([3]; versus Ugr9-1) | nH [4] | IC50 [4] | increase in paw withdrawal threshold (maximum effect) [1, 5] | increase in paw withdrawal time (maximum effect) [3, 5] |
| --- | --- | --- | --- | --- | --- | --- | --- | --- | --- |
| CC[C@H](C)[C@H](N)C(=O)N[C@@H](CO)C(=O)N[C@H](C(=O)N[C@@H](CC(=O)O)C(=O)N1CCC[C@H]1C(=O)N1CCC[C@H]1C(=O)N[C@H]1CSSC[C@@H]2NC(=O)[C@H](CC(N)=O)NC(=O)CNC(=O)[C@H](CO)NC(=O)CNC(=O)[C@H](CC(=O)O)NC(=O)[C@H](CCCNC(=N)N)NC(=O)[C@H](Cc3c[nH]cn3)NC(=O)[C@H](Cc3ccc(O)cc3)NC(=O)[C@H](CSSC[C@@H](C(=O)NCC(=O)N[C@@H](C)C(=O)N[C@H](C(=O)O)C(C)C)NC(=O)CNC(=O)[C@H](Cc3ccc(O)cc3)NC(=O)[C@H](CCCCN)NC(=O)[C@H](CC(=O)O)NC(=O)[C@H](Cc3ccc(O)cc3)NC(=O)[C@H](C(C)C)NC2=O)NC(=O)[C@H](Cc2ccccc2)NC(=O)[C@H](CCCNC(=N)N)NC1=O)[C@@H](C)CC [A23K] (H-ISIDPPCRFCYHRDGSGNCVYDKYGCGAV-OH; disulfide 7-19, 10-26) | more than three times less effectively than Ugr9-1 | significantly increased PWT only at 0.02 mg/kg | Lack of effect | effects only at doses of 0.02 and 0.2 mg/kg | two times less effective than Ugr9-1 | 3.58 ± 0.08 | 9.39 µM |  |  |
| CC[C@H](C)[C@H](N)C(=O)N[C@@H](CO)C(=O)N[C@H](C(=O)N[C@@H](CC(=O)O)C(=O)N1CCC[C@H]1C(=O)N1CCC[C@H]1C(=O)N[C@H]1CSSC[C@@H]2NC(=O)[C@H](CC(N)=O)NC(=O)CNC(=O)[C@H](CO)NC(=O)CNC(=O)[C@H](CC(=O)O)NC(=O)[C@H](CCCNC(=N)N)NC(=O)[C@H](Cc3c[nH]cn3)NC(=O)[C@H](Cc3ccc(O)cc3)NC(=O)[C@H](CSSC[C@@H](C(=O)NCC(=O)N[C@@H](C)C(=O)N[C@H](C(=O)O)C(C)C)NC(=O)CNC(=O)[C@H](Cc3ccc(O)cc3)NC(=O)[C@H](C)NC(=O)[C@H](CC(=O)O)NC(=O)[C@H](Cc3ccc(O)cc3)NC(=O)[C@H](C(C)C)NC2=O)NC(=O)[C@H](Cc2ccccc2)NC(=O)[C@H](CCCNC(=N)N)NC1=O)[C@@H](C)CC [Ugr9-1] (H-ISIDPPCRFCYHRDGSGNCVYDAYGCGAV-OH; disulfide 7-19, 10-26) |  | significant increase in paw withdrawal threshold (PWT) at all doses |  | significantly prolonged paw withdrawal time at all doses |  | 2.33 ± 0.17 | 14.2 ± 0.96 µM | 270% | 106% |
